Experimental data: publication PMC8273889, “Exploiting Electrode Nanoconfinement to Investigate the Catalytic Properties of Isocitrate Dehydrogenase (IDH1) and a Cancer-Associated Variant” (The Journal of Physical Chemistry Letters, 2021)

Columns and labels:
Format in all cases: biochemical
[1] = target: T1, IDH1 R132H (isocitrate dehydrogenase 1) (Homo sapiens, UniProt O75874, R132H); assay: electrochemical turnover (cyclic voltammetry) with nanoconfined purified enzyme
T1 construct: homodimeric (2 × 47 kDa)
T1 sequence (O75874 2-414 R132H): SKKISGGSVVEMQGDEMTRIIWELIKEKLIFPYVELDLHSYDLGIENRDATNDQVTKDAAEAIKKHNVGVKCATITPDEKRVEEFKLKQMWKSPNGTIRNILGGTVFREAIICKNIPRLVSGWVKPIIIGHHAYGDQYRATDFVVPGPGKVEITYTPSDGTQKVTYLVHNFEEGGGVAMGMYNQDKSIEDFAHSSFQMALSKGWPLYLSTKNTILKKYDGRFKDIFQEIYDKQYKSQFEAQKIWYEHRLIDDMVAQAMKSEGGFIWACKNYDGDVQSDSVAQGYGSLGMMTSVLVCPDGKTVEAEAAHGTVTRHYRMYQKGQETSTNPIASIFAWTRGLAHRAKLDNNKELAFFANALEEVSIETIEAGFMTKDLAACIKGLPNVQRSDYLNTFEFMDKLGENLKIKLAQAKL

[2] = target: T2, IDH1 (isocitrate dehydrogenase 1) (Homo sapiens, UniProt O75874); assay: bidirectional cyclic voltammetry of 2OG/isocitrate interconversion with CO2 supplied by carbonic anhydrase
T2 construct: homodimeric (2 × 47 kDa)
T2 sequence (O75874 2-414): as the sequence (O75874 2-414 R132H) above, with H131R counted along it

[3] = target: T2, IDH1 (isocitrate dehydrogenase 1); assay: electrochemical turnover (cyclic voltammetry) with nanoconfined purified enzyme

## O=C(O)CCC(=O)C(=O)O [2OG, 2-oxoglutarate]
[1]
  electrochemical turnover (cyclic voltammetry) with nanoconfined purified enzyme: R132H-catalyzed 2OG reduction (Figure 1C, D) is much slower, manifesting low currents
[2]
  bidirectional cyclic voltammetry of 2OG/isocitrate interconversion with CO2 supp: Cyclic voltammetry measuring bidirectionality of IDH1-catalyzed 2OG/isocitrate interconversion at different 2OG/isocitrate ratios

## O=C(O)CC(C(=O)O)C(O)C(=O)O (stereo not drawn) [isocitrate]
[3]
  electrochemical turnover (cyclic voltammetry) with nanoconfined purified enzyme: IDH1 (Figure 1A, B) is an excellent catalyst for isocitrate oxidation
